Laboratory results: US6376710B2, “Amidine compounds and their use as pesticides” (Sumitomo Chemical Co., Ltd., priority 2000, dated 2002)

Tests used:
Assay type in all cases: in vivo
[1] = tested on: German cockroach (Blattella germanica); experiment: Test Example 2: treated filter paper with sucrose bait, German cockroach male adults, mortality; settings: 144 h
[2] = tested on: house fly (Musca domeestica); experiment: Test Example 3: treated filter paper with sucrose bait, house fly female adults, mortality; settings: 24 h
Method: On the bottom of a polyethylene cup of 5.5 cm in diameter was placed a filter paper of the same size, to which a water dilution (500 ppm) of each of the formulations obtained from present compounds 1, 2, 3, 4, 5, 6, 7, 8, 9, 10, 11, 12, 13, 14, 15, 16, 17, 18, 19, 20, 21, 25, 26, 27, 28, 29, 32, 33, 34, 35, 36, 37, 38, 39, 40, 41, 42, 43, 44, 45, 47, 51, 52, 53, 54, 55, 60, and 61 according to Formulation Example 1 was added dropwise in an amount of 0.7 ml, and the cup was uniformly charged with about 30 mg of sucrose as a bait. Ten female adults of house fly (Musca domeestica) were set free in each cup, which was then kept covered. After 1 day, their survival was examined to determine the mortality.

[3] = tested on: common mosquito (Culex pipiens pallens); experiment: Test Example 4: treated water, common mosquito final-instar larvae, mortality; settings: 192 h

CC(=O)NC(=Nc1c(Cl)cc(C(F)(F)F)cc1Cl)C(F)(F)C(F)(F)F [present compound 61, N-[1-(2,6-dichloro-4-trifluoromethylphenylimino)-2,2,3,3,3-pentafluoropropyl]-acetamide]
100%: mortality at 500 µg/mL [1] | mortality at 500 µg/mL [2] | mortality at 3.5 ppm [3]
